Measured values: US20200017495A1, “NOVEL HETEROCYCLIC COMPOUNDS AND THEIR USE IN PREVENTING OR TREATING BACTERIAL INFECTIONS” (priority 2017, published 2020)

Test system: Escherichia coli (ECO) isolates
Assay: MIC of compounds alone and combined with antibacterials, broth microdilution (CLSI)
Type: cell-based
Method in brief: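 Log-phase isolates were inoculated at a final 5.10^5 CFU/mL in cation-adjusted Mueller-Hinton broth and incubated 16-20 h at 35° C in ambient air. MIC was the lowest concentration preventing visible growth; for combinations, the antibacterial MIC was read at each compound concentration.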

C=CC1=C(C(=O)O)N2C(=O)[C@@H](NC(=O)/C(=N\OCC(=O)O)c3csc(N)n3)[C@H]2SC1 [FIX, Cefixime]
MIC ATB in combination (ECO UFR17, AF3 @ 8 μg/mL): >128 mg/L | MIC ATB in combination (ECO UFR17, CLA @ 4 μg/mL): >128 mg/L | MIC ATB in combination (ECO UFR18, AF2 @ 8 μg/mL): <0.25 mg/L | MIC ATB in combination (ECO UFR18, AF3 @ 8 μg/mL): <0.25 mg/L | MIC ATB in combination (ECO UFR18, CLA @ 4 μg/mL): >128 mg/L | MIC ATB in combination (ECO UFR19, AF2 @ 8 μg/mL): <0.25 mg/L | MIC ATB in combination (ECO UFR19, AF3 @ 8 μg/mL): <0.25 mg/L | MIC ATB in combination (ECO UFR19, CLA @ 4 μg/mL): >128 mg/L | MIC ATB in combination (ECO UFR32, AF2 @ 8 μg/mL): <0.25 mg/L | MIC ATB in combination (ECO UFR32, AF3 @ 8 μg/mL): <0.25 mg/L | MIC ATB in combination (ECO UFR32, CLA @ 4 μg/mL): 1 mg/L | MIC ATB in combination (ECO UFR39, AF2 @ 8 μg/mL): <0.25 mg/L | MIC ATB in combination (ECO UFR39, AF3 @ 8 μg/mL): <0.25 mg/L | MIC ATB in combination (ECO UFR39, CLA @ 4 μg/mL): >128 mg/L | MIC ATB in combination (ECO UFR41, AF2 @ 8 μg/mL): <0.25 mg/L | MIC ATB in combination (ECO UFR41, AF3 @ 8 μg/mL): <0.25 mg/L | MIC ATB in combination (ECO UFR41, CLA @ 4 μg/mL): >128 mg/L | MIC ATB in combination (ECO UFR45, AF2 @ 8 μg/mL): <0.25 mg/L | MIC ATB in combination (ECO UFR45, AF3 @ 8 μg/mL): <0.25 mg/L | MIC ATB in combination (ECO UFR45, CLA @ 4 μg/mL): 32 mg/L | MIC ATB in combination (ECO UFR52, AF2 @ 8 μg/mL): >128 mg/L | MIC ATB in combination (ECO UFR52, AF3 @ 8 μg/mL): >128 mg/L | MIC ATB in combination (ECO UFR52, CLA @ 4 μg/mL): >128 mg/L | MIC ATB in combination (ECO UFR61O, AF2 @ 8 μg/mL): <=0.25 μg/mL | MIC ATB in combination (ECO UFR61O, AF3 @ 8 μg/mL): <0.25 mg/L | MIC ATB in combination (ECO UFR61O, CLA @ 4 μg/mL): 32 mg/L | MIC ATB in combination (ECO UFR62, AF2 @ 8 μg/mL): <0.25 mg/L | MIC ATB in combination (ECO UFR62, AF3 @ 8 μg/mL): <0.25 mg/L | MIC ATB in combination (ECO UFR62, CLA @ 4 μg/mL): 32 mg/L | MIC ATB in combination (ECO UFR74, AF2 @ 8 μg/mL): <0.25 mg/L | MIC ATB in combination (ECO UFR74, AF3 @ 8 μg/mL): <0.25 mg/L | MIC ATB in combination (ECO UFR74, CLA @ 4 μg/mL): >128 mg/L | MIC ATB in combination (ECO UFR86, AF2 @ 8 μg/mL): 0.5 mg/L | MIC ATB in combination (ECO UFR86, AF3 @ 8 μg/mL): 0.5 mg/L | MIC ATB in combination (ECO UFR86, CLA @ 4 μg/mL): 2 mg/L | MIC ATB in combination (ECO UFR174, AF2 @ 8 μg/mL): <0.25 mg/L | MIC ATB in combination (ECO UFR174, AF3 @ 8 μg/mL): <0.25 mg/L | MIC ATB in combination (ECO UFR174, CLA @ 4 μg/mL): 2 mg/L | MIC ATB in combination (ECO UFR175, AF2 @ 8 μg/mL): <0.25 mg/L | MIC ATB in combination (ECO UFR175, AF3 @ 8 μg/mL): <=0.25 μg/mL | MIC ATB in combination (ECO UFR175, CLA @ 4 μg/mL): 16 mg/L | MIC ATB in combination (ECO UFR176, AF2 @ 8 μg/mL): <0.25 mg/L | MIC ATB in combination (ECO UFR176, AF3 @ 8 μg/mL): <0.25 mg/L | MIC ATB in combination (ECO UFR176, CLA @ 4 μg/mL): 32 mg/L | MIC ATB in combination (ECO UFR184, AF2 @ 8 μg/mL): <0.25 mg/L | MIC ATB in combination (ECO UFR184, AF3 @ 8 μg/mL): <0.25 mg/L | MIC ATB in combination (ECO UFR184, CLA @ 4 μg/mL): >128 mg/L | MIC ATB in combination (ECO UFR208, AF2 @ 8 μg/mL): >128 mg/L | MIC ATB in combination (ECO UFR208, AF3 @ 8 μg/mL): >128 mg/L | MIC ATB in combination (ECO UFR208, CLA @ 4 μg/mL): >128 mg/L | MIC ATB in combination (ECO UFR209, AF2 @ 8 μg/mL): <0.25 mg/L | MIC ATB in combination (ECO UFR209, AF3 @ 8 μg/mL): <0.25 mg/L | MIC ATB in combination (ECO UFR209, CLA @ 4 μg/mL): 1 mg/L | MIC ATB in combination (ECO UFR210, AF2 @ 8 μg/mL): <0.25 mg/L | MIC ATB in combination (ECO UFR210, AF3 @ 8 μg/mL): <0.25 mg/L | MIC ATB in combination (ECO UFR210, CLA @ 4 μg/mL): 0.5 mg/L | MIC ATB in combination (ECO UFR211, AF2 @ 8 μg/mL): <0.25 mg/L | MIC ATB in combination (ECO UFR211, AF3 @ 8 μg/mL): <0.25 mg/L | MIC ATB in combination (ECO UFR211, CLA @ 4 μg/mL): 2 mg/L | MIC ATB in combination (ECO UFR212, AF2 @ 8 μg/mL): <0.25 mg/L | MIC ATB in combination (ECO UFR212, AF3 @ 8 μg/mL): <0.25 mg/L | MIC ATB in combination (ECO UFR212, CLA @ 4 μg/mL): >128 mg/L | MIC ATB in combination (ECO URF20, AF2 @ 8 μg/mL): <=0.25 μg/mL | MIC ATB in combination (ECO URF20, AF3 @ 8 μg/mL): 2 mg/L | MIC ATB in combination (ECO URF20, CLA @ 4 μg/mL): >128 mg/L | MIC (strain ECO 4133, genotype TEM-30, OXA-1): 0.5 mg/L | MIC (strain ECO 5302, genotype TEM-1, OXA-1): 0.5 mg/L | MIC (strain ECO 131119, genotype TEM-1, OXA-48): <=0.25 μg/mL | MIC (strain ECO 180070, genotype TEM-1, CTX-M-15): 128 mg/L | MIC (strain ECO 190314, genotype CTX-M-1): 16 mg/L | MIC (strain ECO 190317, compound alone): >128 mg/L | MIC (strain ECO 190317, genotype TEM-1, SHV-12, CTX-M-15, OXA-1): >128 mg/L | MIC (strain ECO 190457, compound alone): 128 mg/L | MIC (strain ECO 190457, genotype CTX-M-15, OXA-1): 128 mg/L | MIC (strain ECO 190549, genotype CTX-M-1): 16 mg/L | MIC (strain ECO 200159, genotype TEM-1, CTX-M-14): 8 mg/L | MIC (strain ECO 200259, genotype CTX-M-14): 8 mg/L | MIC (strain ECO 200344, genotype CTX-M-1): 32 mg/L | MIC (strain ECO 260096, genotype CTX-M-132): >128 mg/L | MIC (strain ECO 260304, genotype CTX-M-15): 32 mg/L | MIC (strain ECO 260508, genotype TEM-1, CTX-M-15, OXA-1): >128 mg/L | MIC (strain ECO RGN238, genotype OXA-1): <=0.25 μg/mL | MIC (strain ECO UFR15, genotype TEM-1, OXA-48): 1 mg/L | MIC (strain ECO UFR16, compound alone): >128 mg/L | MIC (strain ECO UFR16, genotype TEM-1, CTX-M-15, OXA-1, OXA-48): >128 mg/L | MIC (strain ECO UFR17, genotype TEM-1, CTX-M-15, CMY-2, OXA-1, OXA-181): >128 mg/L | MIC (strain ECO UFR18, genotype CTX-M-15, OXA-204): >128 mg/L | MIC (strain ECO UFR19, genotype CTX-M-15, CMY-2, OXA-1, OXA-204): >128 mg/L | MIC (strain ECO UFR20, compound alone): 512 mg/L | MIC (strain ECO UFR20, genotype SHV-1, CTX-M-15, OXA-1, OXA-232): 512 mg/L
